Data on 31 compounds can be found in patent US20240166652A1, “MODULATORS OF THE INTEGRATED STRESS PATHWAY” (Calico Life Sciences LLC, priority 2017, published 2024).

For this test, the system named is ATF4 luciferase reporter in HEK293T cells. In words: ATF4-Luc assay (ATF4 luciferase reporter, tunicamycin-treated HEK293T cells). The test is classed as cell-based, human. The conditions noted are these: HEK293T cells carrying the ATF4 luciferase reporter, 1 μg/mL tunicamycin, 7 hours. In general terms: In a reporter assay the amount or activity of a reporter protein is the signal.

Broadly, the EC50 is the concentration giving half of the maximal effect.

Some results are limits rather than exact numbers.

`Cc1ccc(OCC(=O)NC23CC(NC(=O)COc4ccc(Cl)c(F)c4)(C2)C3)c(C)n1` [Compound 232, 2-(4-chloro-3-fluorophenoxy)-N-(3-{2-[(2,6-dimethylpyridin-3-yl)oxy]acetamido}bicyclo[1.1.1]pentan-1-yl)acetamide]: where the note is “Homo sapiens, HEK-293T”, the EC50 fell in the range of 500 to 2000 nM.
For the compound `O=C(COc1ccc(F)c(C(F)(F)F)c1)NC12CCC(NC(=O)COc3ccc(F)c(C(F)(F)F)c3)(CC1)[C@@H](O)C2` [Compound 823, N,N′-[(2S)-2-hydroxybicyclo[2.2.2]octane-1,4-diyl]bis{2-[4-fluoro-3-(trifluoromethyl)phenoxy]acetamide}], the EC50 (Homo sapiens, HEK-293T) was < 10 nM.
Same read-out and setting: in the case of `CN(CC(=O)NC12CC(NC(=O)COc3ccc(Cl)c(Cl)c3)(C1)C2)c1ccc(Cl)cc1` [Compound 200, N^2-(4-chlorophenyl)-N-{3-[2-(3,4-dichlorophenoxy)acetamido]-bicyclo[1.1.1]pentan-1-yl}-N^2-methylglycinamide] it was > 2000 nM; in that of `COc1cc(OCC(=O)NC23CCC(NC(=O)COc4ccc(Cl)c(F)c4)(CC2)C[C@@H]3O)ccc1F` [Compound 771, 2-(4-chloro-3-fluorophenoxy)-N-{(3S)-4-[2-(4-fluoro-3-methoxyphenoxy)acetamido]-3-hydroxybicyclo[2.2.2]octan-1-yl}acetamide], < 10 nM; in that of `COc1ncc(OCC(=O)NC23CCC(NC(=O)COc4ccc(Cl)c(F)c4)(CC2)[C@@H](O)C3)cn1` [Compound 637, 2-(4-chloro-3-fluorophenoxy)-N-[(2S)-2-hydroxy-4-{2-[(2-methoxypyrimidin-5-yl)oxy]acetamido}bicyclo[2.2.2]octan-1-yl]acetamide], < 10 nM.
As to `O=C(COCc1cccc(Cl)c1)NC12CC(NC(=O)COc3ccc(Cl)c(F)c3)(C1)C2` [Compound 131, 2-(4-chloro-3-fluorophenoxy)-N-(3-{2-[(3-chlorophenyl)methoxy]acetamido}-bicyclo[1.1.1]pentan-1-yl)acetamide], the EC50 (Homo sapiens, HEK-293T) is 10 to 50 nM.
Still for that read-out and setting: in the case of `CCc1cc(C)cc(OCC(=O)NC23CCC(NC(=O)COc4ccc(Cl)c(F)c4)(CC2)[C@@H](O)C3)c1` [Compound 463, 2-(4-chloro-3-fluorophenoxy)-N-{(2S)-4-[2-(3-ethyl-5-methylphenoxy)acetamido]-2-hydroxybicyclo[2.2.2]octan-1-yl}acetamide] it was > 2000 nM.
Consider `O=C(COc1ccc(Cl)cc1)NC12CCC(NC(=O)COc3ccc(F)cc3)(CC1)[C@@H](O)C2` [Compound 708, 2-(4-chlorophenoxy)-N-{(3S)-4-[2-(4-fluorophenoxy)acetamido]-3-hydroxybicyclo[2.2.2]octan-1-yl}acetamide], for which the EC50 is < 10 nM.
Regarding `O=C(COc1ccc(Cl)c(F)c1)NC12CCC(NCCOc3ccc(Cl)cc3)(CC1)C(O)C2` (stereo not shown) [Compound 336, 2-(4-chloro-3-fluorophenoxy)-N-(4-{[2-(4-chlorophenoxy)ethyl]amino}-3-hydroxybicyclo[2.2.2]octan-1-yl)acetamide], the EC50 (Homo sapiens, HEK-293T) was < 10 nM.
Take `O=C(COc1ccc(Cl)c(F)c1)NC12CCC(NCCCOc3ccc(Cl)c(F)c3)(CC1)[C@@H](O)C2` [Compound 703, 2-(4-chloro-3-fluorophenoxy)-N-[(3S)-4-{[3-(4-chloro-3-fluorophenoxy)propyl]amino}-3-hydroxybicyclo[2.2.2]octan-1-yl]acetamide]: the EC50 (Homo sapiens, HEK-293T) was < 10 nM.
Same read-out and setting: to `Cc1cccc(CS(=O)(=O)NC23CC(NC(=O)COc4ccc(Cl)c(F)c4)(C2)C3)c1` [Compound 486, 2-(4-chloro-3-fluorophenoxy)-N-(3-{[(3-methylphenyl)methanesulfonyl]amino}bicyclo[1.1.1]pentan-1-yl)acetamide] belongs > 2000 nM.
On the same count and under the same terms, to `O=C(COc1ccc(F)cc1)NC12CCC(NC(=O)COc3ccc(Cl)c(Cl)c3)(CC1)[C@@H](O)C2` [Compound 581, 2-(3,4-dichlorophenoxy)-N-{(2S)-4-[2-(4-fluorophenoxy)acetamido]-2-hydroxybicyclo[2.2.2]octan-1-yl}acetamide] belongs < 10 nM.
In the case of `NC1CC2(NC(=O)COc3ccc(Cl)c(F)c3)CCC1(NC(=O)COc1ccc(Cl)c(F)c1)CC2` (stereo not shown) [Compound 357, N,N′-(2-aminobicyclo[2.2.2]octane-1,4-diyl)bis[2-(4-chloro-3-fluorophenoxy)acetamide]], where the note is “Homo sapiens, HEK-293T”, the EC50 is < 10 nM.
Same read-out and setting: in the case of `COC(=O)C1CC2(NC(=O)COc3ccc(Cl)c(F)c3)CCC1(NC(=O)COc1ccc(Cl)c(F)c1)CC2` (stereo not shown) [Compound 569, methyl 1,4-bis[2-(4-chloro-3-fluorophenoxy)acetamido]bicyclo[2.2.2]octane-2-carboxylate] it was < 10 nM.
As to `O=C(COc1ccc(C(F)F)cc1)NC12CCC(NC(=O)COc3ccc(Cl)c(F)c3)(CC1)[C@@H](O)C2` [Compound 539, 2-(4-chloro-3-fluorophenoxy)-N-[(2S)-4-{2-[4-(difluoromethyl)phenoxy]acetamido}-2-hydroxybicyclo[2.2.2]octan-1-yl]acetamide], the EC50 (Homo sapiens, HEK-293T) was < 10 nM.
Regarding `O=C(COc1cccc(F)c1)NC12CC(NC(=O)COc3ccc(Cl)c(F)c3)(C1)C2` [Compound 410, 2-(4-chloro-3-fluorophenoxy)-N-{3-[2-(3-fluorophenoxy)acetamido]bicyclo[1.1.1]pentan-1-yl}acetamide], for the setting “Homo sapiens, HEK-293T”, the 50% effective concentration (EC50) was < 10 nM.
`Cc1cc(OCC(=O)NC23CC(NC(=O)COc4ccc(Cl)c(F)c4)(C2)C3)cc(C)n1` [Compound 220, 2-(4-chloro-3-fluorophenoxy)-N-(3-{2-[(2,6-dimethylpyridin-4-yl)oxy]acetamido}bicyclo[1.1.1]pentan-1-yl)acetamide]: the EC50 (Homo sapiens, HEK-293T) lay in the range of 500 to 2000 nM.
The same measure, in the same setting: in the case of `O=C(COc1ccc(Cl)c(F)c1)NC12CC(NCC(=O)c3ccc(Cl)cc3)(C1)C2` [Compound 289, 2-(4-chloro-3-fluorophenoxy)-N-(3-{[2-(4-chlorophenyl)-2-oxoethyl]amino}bicyclo[1.1.1]pentan-1-yl)acetamide] it was 50 to 250 nM; in that of `O=C(COc1cccnc1)NC12CCC(NC(=O)COc3ccc(Cl)c(F)c3)(C1)C2` [Compound 403, 2-(4-chloro-3-fluorophenoxy)-N-(4-{2-[(pyridin-3-yl)oxy]acetamido}bicyclo[2.1.1]hexan-1-yl)acetamide], 500 to 2000 nM.
Take `O=C(COc1ccc(C(F)(F)F)nc1)NC12CC(NC(=O)COc3ccc4c(c3)OC(F)(F)O4)(C1)C2` [Compound 266, 2-[(2,2-difluoro-2H-1,3-benzodioxol-5-yl)oxy]-N-[3-(2-{[6-(trifluoromethyl)-pyridin-3-yl]oxy}acetamido)bicyclo[1.1.1]pentan-1-yl]acetamide]: under “Homo sapiens, HEK-293T”, the EC50 is < 10 nM.
Still for that read-out and setting: in the case of `O=C(COc1ccn2nccc2c1)NC12CCC(NC(=O)COc3ccc(Cl)c(F)c3)(CC1)[C@@H](O)C2` [Compound 645, 2-(4-chloro-3-fluorophenoxy)-N-[(2S)-2-hydroxy-4-{2-[(pyrazolo[1,5-a]pyridin-5-yl)oxy]acetamido}bicyclo[2.2.2]octan-1-yl]acetamide] it was < 10 nM; in that of `Cc1cc(C)cc(OCC(=O)NC23CCC(NC(=O)COc4ccc(Cl)c(F)c4)(CC2)[C@@H](O)C3)c1` [Compound 470, 2-(4-chloro-3-fluorophenoxy)-N-{(2S)-4-[2-(3,5-dimethylphenoxy)acetamido]-2-hydroxybicyclo[2.2.2]octan-1-yl}acetamide], 10 to 50 nM; in that of `O=C(COc1ccc(F)cc1)NC12CCC(NC(=O)COc3ccc(Cl)cc3)(CC1)[C@@H](O)C2` [Compound 616, 2-(4-chlorophenoxy)-N-{(2S)-4-[2-(4-fluorophenoxy)acetamido]-2-hydroxybicyclo[2.2.2]octan-1-yl}acetamide], < 10 nM.
The same measure, in the same setting: in the case of `O=C(COc1ccc(Cl)c(F)c1)NC12CCC(NC(=O)COc3ccnc(C(F)(F)F)c3)(CC1)C(O)C2` (stereo not shown) [Compound 308, 2-(4-chloro-3-fluorophenoxy)-N-[3-hydroxy-4-(2-{[2-(trifluoromethyl)pyridin-4-yl]oxy}acetamido)bicyclo[2.2.2]octan-1-yl]acetamide] it was < 10 nM; in that of `O=C(CCn1ncc(Cl)cc1=O)NC12CC(NC(=O)COc3ccc(Cl)c(F)c3)(C1)C2` [Compound 104, N-{3-[2-(4-chloro-3-fluorophenoxy)acetamido]bicyclo[1.1.1]pentan-1-yl}-3-(4-chloro-6-oxopyridazin-1(6H)-yl)propanamide], 250 to 500 nM; in that of `Nc1nc(Cl)ccc1OCC(=O)NC12CC(NC(=O)COc3ccc(Cl)c(F)c3)(C1)C2` [Compound 236, 2-[(2-amino-6-chloropyridin-3-yl)oxy]-N-{3-[2-(4-chloro-3-fluorophenoxy)acetamido]bicyclo[1.1.1]pentan-1-yl}acetamide], 10 to 50 nM.
In the case of `O=C(COc1ccnc(C(F)(F)F)c1)NC12CC(NC(=O)COc3ccc(Cl)c(F)c3)(C1)C2` [Compound 233, 2-(4-chloro-3-fluorophenoxy)-N-[3-(2-{[2-(trifluoromethyl)pyridin-4-yl]oxy}acetamido)bicyclo[1.1.1]pentan-1-yl]acetamide], the EC50 (Homo sapiens, HEK-293T) lay within 10 to 50 nM.
`O=C(COCc1ccc(F)cc1)NC12CC(NC(=O)COc3ccc(Cl)c(Cl)c3)(C1)C2` [Compound 157, 2-(3,4-dichlorophenoxy)-N-(3-{2-[(4-fluorophenyl)methoxy]acetamido}-bicyclo[1.1.1]pentan-1-yl)acetamide]: the EC50 (Homo sapiens, HEK-293T) lay in the range of 10 to 50 nM.
Still for that read-out and setting: to `O=C(COc1ccc(C(F)(F)F)nc1)NC12CCC(NC(=O)COc3ccc(Cl)c(Cl)c3)(C1)C2` [Compound 196, 2-(3,4-dichlorophenoxy)-N-[4-(2-{[6-(trifluoromethyl)pyridin-3-yl]oxy}acetamido)bicyclo[2.1.1]hexan-1-yl]acetamide] belongs 10 to 50 nM.
Turning to `N#Cc1ccc(CS(=O)(=O)NC23CC(NC(=O)COc4ccc(Cl)c(F)c4)(C2)C3)cc1` [Compound 490, 2-(4-chloro-3-fluorophenoxy)-N-(3-{[(4-cyanophenyl)methanesulfonyl]amino}bicyclo[1.1.1]pentan-1-yl)acetamide], the EC50 (Homo sapiens, HEK-293T) is 500 to 2000 nM.
On the same count and under the same terms, in the case of `O=C(COCc1ccc(Cl)cc1)NC12CC(NC(=O)COc3ccc(Cl)c(Cl)c3)(C1)C2` [Compound 156, 2-[(4-chlorophenyl)methoxy]-N-{3-[2-(3,4-dichlorophenoxy)acetamido]-bicyclo[1.1.1]pentan-1-yl}acetamide] it was 10 to 50 nM.
